Source: PubChem BioAssay (NCI)
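GI50 = concentration required for 50% inhibition of growth. TGI: total growth inhibition.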

Key:
Assay in all cases: DTP human tumour cell line panel, 384-well format
SNB-75 CNS = tested on: SNB-75 CNS
COLO 205 colon = tested on: COLO 205 colon
SNB-19 CNS = tested on: SNB-19 CNS
U251 glioblastoma = tested on: U251 glioblastoma
RPMI-8226 leukemia = tested on: RPMI-8226 leukemia
T-47D breast = tested on: T-47D breast
SR leukemia = tested on: SR leukemia
CAKI-1 renal = tested on: CAKI-1 renal
A549 NSCLC = tested on: A549 NSCLC
MALME-3M melanoma = tested on: MALME-3M melanoma
HCT-116 colon = tested on: HCT-116 colon
OVCAR-4 ovarian = tested on: OVCAR-4 ovarian
HOP-62 NSCLC = tested on: HOP-62 NSCLC
MCF7 breast = tested on: MCF7 breast
BT-549 breast = tested on: BT-549 breast
UACC-62 melanoma = tested on: UACC-62 melanoma
HS 578T breast = tested on: HS 578T breast
ACHN renal = tested on: ACHN renal
LOX IMVI melanoma = tested on: LOX IMVI melanoma
HOP-92 NSCLC = tested on: HOP-92 NSCLC
HCT-15 colon = tested on: HCT-15 colon
NCI-H322M lung = tested on: NCI-H322M lung
MOLT-4 leukemia = tested on: MOLT-4 leukemia
SK-OV-3 ovarian = tested on: SK-OV-3 ovarian
IGROV1 ovarian = tested on: IGROV1 ovarian
HT29 colon = tested on: HT29 colon
OVCAR-3 ovarian = tested on: OVCAR-3 ovarian
NCI-H23 lung = tested on: NCI-H23 lung
SK-MEL-5 melanoma = tested on: SK-MEL-5 melanoma
TK-10 renal = tested on: TK-10 renal
NCI-H460 NSCLC = tested on: NCI-H460 NSCLC
MDA-MB-435 melanoma = tested on: MDA-MB-435 melanoma
HCC-2998 colon = tested on: HCC-2998 colon
OVCAR-8 ovarian = tested on: OVCAR-8 ovarian
KM12 colon = tested on: KM12 colon
MDA-MB-231 breast = tested on: MDA-MB-231 breast
OVCAR-5 ovarian = tested on: OVCAR-5 ovarian
MDA-MB-468 breast = tested on: MDA-MB-468 breast
SN12C renal = tested on: SN12C renal
DU-145 prostate = tested on: DU-145 prostate
HL-60(TB) leukemia = tested on: HL-60(TB) leukemia
RXF 393 renal = tested on: RXF 393 renal
UACC-257 melanoma = tested on: UACC-257 melanoma
A498 renal = tested on: A498 renal
SF-295 CNS = tested on: SF-295 CNS
SK-MEL-28 melanoma = tested on: SK-MEL-28 melanoma
NCI-H522 lung = tested on: NCI-H522 lung
SF-268 CNS = tested on: SF-268 CNS
PC-3 prostate = tested on: PC-3 prostate
SF-539 CNS = tested on: SF-539 CNS
NCI-H226 lung = tested on: NCI-H226 lung
EKVX NSCLC = tested on: EKVX NSCLC
NCI/ADR-RES ovarian = tested on: NCI/ADR-RES ovarian
M14 melanoma = tested on: M14 melanoma

SMILES: Cc1ccc(F)c(NC(=O)Nc2ccc(-c3cccc4[nH]nc(N)c34)cc2)c1
- GI50 (SNB-75 CNS): 2.67 µM
- TGI (SNB-75 CNS): 9.2 µM
- GI50 (COLO 205 colon): 1.93 µM
- TGI (COLO 205 colon): 4.29 µM
- GI50 (SNB-19 CNS): 3.26 µM
- TGI (SNB-19 CNS): 8.97 µM
- GI50 (U251 glioblastoma): 2.27 µM
- TGI (U251 glioblastoma): 4.83 µM
- GI50 (RPMI-8226 leukemia): 1.76 µM
- TGI (RPMI-8226 leukemia): 3.16 µM
- GI50 (T-47D breast): 2.85 µM
- TGI (T-47D breast): 14.2 µM
- GI50 (SR leukemia): 1.49 µM
- TGI (SR leukemia): 2.82 µM
- GI50 (CAKI-1 renal): 2.84 µM
- TGI (CAKI-1 renal): 7.73 µM
- GI50 (A549 NSCLC): 3.14 µM
- TGI (A549 NSCLC): 9.44 µM
- GI50 (MALME-3M melanoma): 1.93 µM
- TGI (MALME-3M melanoma): 4.24 µM
- GI50 (HCT-116 colon): 1.99 µM
- TGI (HCT-116 colon): 4.6 µM
- GI50 (OVCAR-4 ovarian): 1.6 µM
- TGI (OVCAR-4 ovarian): 3.98 µM
- GI50 (HOP-62 NSCLC): 1.94 µM
- TGI (HOP-62 NSCLC): 5.5 µM
- GI50 (MCF7 breast): 1.08 µM
- TGI (MCF7 breast): 4.28 µM
- GI50 (BT-549 breast): 1.99 µM
- TGI (BT-549 breast): 3.79 µM
- GI50 (UACC-62 melanoma): 2.31 µM
- TGI (UACC-62 melanoma): 5.7 µM
- GI50 (HS 578T breast): 2.19 µM
- TGI (HS 578T breast): 5.31 µM
- GI50 (ACHN renal): 2.13 µM
- TGI (ACHN renal): 5.05 µM
- GI50 (LOX IMVI melanoma): 1.85 µM
- TGI (LOX IMVI melanoma): 3.32 µM
- GI50 (HOP-92 NSCLC): 3.96 µM
- TGI (HOP-92 NSCLC): 12.6 µM
- GI50 (HCT-15 colon): 1.82 µM
- TGI (HCT-15 colon): 4.3 µM
- GI50 (NCI-H322M lung): 2.15 µM
- TGI (NCI-H322M lung): 5.5 µM
- GI50 (MOLT-4 leukemia): 1.91 µM
- TGI (MOLT-4 leukemia): 3.35 µM
- GI50 (SK-OV-3 ovarian): 2.42 µM
- TGI (SK-OV-3 ovarian): 11.6 µM
- GI50 (IGROV1 ovarian): 1.78 µM
- TGI (IGROV1 ovarian): 3.79 µM
- GI50 (HT29 colon): 1.77 µM
- TGI (HT29 colon): 4.58 µM
- GI50 (OVCAR-3 ovarian): 1.75 µM
- TGI (OVCAR-3 ovarian): 3.25 µM
- GI50 (NCI-H23 lung): 1.71 µM
- TGI (NCI-H23 lung): 3.4 µM
- GI50 (SK-MEL-5 melanoma): 1.34 µM
- TGI (SK-MEL-5 melanoma): 2.67 µM
- GI50 (TK-10 renal): 2.07 µM
- TGI (TK-10 renal): 5.48 µM
- GI50 (NCI-H460 NSCLC): 1.61 µM
- TGI (NCI-H460 NSCLC): 3.02 µM
- GI50 (MDA-MB-435 melanoma): 2.16 µM
- TGI (MDA-MB-435 melanoma): 4.25 µM
- GI50 (HCC-2998 colon): 1.27 µM
- TGI (HCC-2998 colon): 2.65 µM
- GI50 (OVCAR-8 ovarian): 2.01 µM
- TGI (OVCAR-8 ovarian): 9.04 µM
- GI50 (KM12 colon): 0.432 µM
- TGI (KM12 colon): 3.87 µM
- GI50 (MDA-MB-231 breast): 3.83 µM
- TGI (MDA-MB-231 breast): 15.2 µM
- GI50 (OVCAR-5 ovarian): 1.82 µM
- TGI (OVCAR-5 ovarian): 3.89 µM
- GI50 (MDA-MB-468 breast): 1.8 µM
- TGI (MDA-MB-468 breast): 3.69 µM
- GI50 (SN12C renal): 1.26 µM
- TGI (SN12C renal): 2.89 µM
- GI50 (DU-145 prostate): 1.73 µM
- TGI (DU-145 prostate): 3.55 µM
- GI50 (HL-60(TB) leukemia): 1.27 µM
- TGI (HL-60(TB) leukemia): 2.54 µM
- GI50 (RXF 393 renal): 1.56 µM
- TGI (RXF 393 renal): 3.59 µM
- GI50 (UACC-257 melanoma): 1.83 µM
- TGI (UACC-257 melanoma): 3.95 µM
- GI50 (A498 renal): 2.03 µM
- TGI (A498 renal): 4.58 µM
- GI50 (SF-295 CNS): 3.17 µM
- TGI (SF-295 CNS): 10.5 µM
- GI50 (SK-MEL-28 melanoma): 4.44 µM
- TGI (SK-MEL-28 melanoma): 15.6 µM
- GI50 (NCI-H522 lung): 2.05 µM
- TGI (NCI-H522 lung): 3.54 µM
- GI50 (SF-268 CNS): 2.3 µM
- TGI (SF-268 CNS): 7.63 µM
- GI50 (PC-3 prostate): 2.31 µM
- TGI (PC-3 prostate): 4.82 µM
- GI50 (SF-539 CNS): 1.44 µM
- TGI (SF-539 CNS): 3.49 µM
- GI50 (NCI-H226 lung): 2.44 µM
- TGI (NCI-H226 lung): 9.13 µM
- GI50 (EKVX NSCLC): 2.13 µM
- TGI (EKVX NSCLC): 4.53 µM
- GI50 (NCI/ADR-RES ovarian): 2.43 µM
- TGI (NCI/ADR-RES ovarian): 9.01 µM
- GI50 (M14 melanoma): 1.96 µM
- TGI (M14 melanoma): 4.86 µM
